Experimental findings from article PMC3019153 (PLoS ONE, 2011) are described below.

The target of experiment [1] is mycobacterial dephosphocoenzyme A kinase L114A mutant (Mycobacterium tuberculosis, UniProt P9WPA3, L114A). Format: biochemical.
Experiment [2] addresses T1, mycobacterial dephosphocoenzyme A kinase D32A mutant (Mycobacterium tuberculosis, UniProt P9WPA3, D32A). The experiment is classed as biochemical.
For experiment [3], the target named is mycobacterial dephosphocoenzyme A kinase R140A mutant (Mycobacterium tuberculosis, UniProt P9WPA3, R140A). Format: biochemical.
Experiment [4] addresses mycobacterial dephosphocoenzyme A kinase G8A mutant (Mycobacterium tuberculosis, UniProt P9WPA3, G8A). The experiment is classed as biochemical.
The target of experiment [5] is T2, mycobacterial dephosphocoenzyme A kinase D32E mutant (Mycobacterium tuberculosis, UniProt P9WPA3, D32E). Format: biochemical.
The target of experiment [6] is T3, mycobacterial dephosphocoenzyme A kinase K14A mutant (Mycobacterium tuberculosis, UniProt P9WPA3, K14A). The experiment is classed as biochemical.
The target of experiment [7] is T4, mycobacterial dephosphocoenzyme A kinase R140K mutant (Mycobacterium tuberculosis, UniProt P9WPA3, R140K). Format: binding.
For experiment [8], the target named is T5, wild type mycobacterial dephosphocoenzyme A kinase (CoaE) (Mycobacterium tuberculosis, UniProt P9WPA3).
T5 sequence (P9WPA3 1-407): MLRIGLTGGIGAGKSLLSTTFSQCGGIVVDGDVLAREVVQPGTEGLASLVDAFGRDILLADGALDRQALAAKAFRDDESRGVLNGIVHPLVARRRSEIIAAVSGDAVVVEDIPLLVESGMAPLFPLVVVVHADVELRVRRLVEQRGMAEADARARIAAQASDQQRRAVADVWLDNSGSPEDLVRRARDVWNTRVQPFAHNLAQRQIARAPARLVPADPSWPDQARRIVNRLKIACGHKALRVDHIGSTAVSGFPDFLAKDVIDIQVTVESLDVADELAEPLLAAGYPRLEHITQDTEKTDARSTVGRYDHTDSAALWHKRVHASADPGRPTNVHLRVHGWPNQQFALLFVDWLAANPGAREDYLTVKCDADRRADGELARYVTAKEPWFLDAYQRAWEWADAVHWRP
Format: binding. Conditions: pH 7.8.

Experiment [9] deals with T5, wild type mycobacterial dephosphocoenzyme A kinase (CoaE). Format: biochemical.
In experiment [10] the target is T2, mycobacterial dephosphocoenzyme A kinase D32E mutant. Format: binding. Conditions: pH 7.8.
Experiment [11] has as its target T3, mycobacterial dephosphocoenzyme A kinase K14A mutant. Format: binding. Conditions: pH 7.8.
Experiment [12] concerns the target T1, mycobacterial dephosphocoenzyme A kinase D32A mutant. Format: binding. Conditions: pH 7.8.
Experiment [13] addresses T4, mycobacterial dephosphocoenzyme A kinase R140K mutant. Format: biochemical.

Values joined by “and” are separate entries in the source; they are usually repeats but may differ in a detail not shown here. Equal values may be shown once. “Also recorded” adds a separate entry of the source.

In general, Km refers to the concentration of substrate that gives half-maximal velocity. Regarding `Nc1ncnc2c1ncn2[C@@H]1O[C@H](COP(=O)(O)OP(=O)(O)OP(=O)(O)O)[C@@H](O)[C@H]1O` [ATP], in experiment [1], the Kcat worked out at 0.0192 s⁻¹ and the Michaelis-Menten constant (Km) was determined as 63.9 µM. Moreover, in [2], the Kcat worked out at 0.014 s⁻¹ and the “Kcat, % of the WT” value is on record as “about 28%”. For the same compound, in [3], the Kcat result is given as “nr” and the Km entry is recorded as “nr”. Further, in experiment [4], the Kcat was 0.04272 s⁻¹ and the Km came out at 59.8 µM. For the same compound, in experiment [5], the Kcat came to 0.0666 s⁻¹, the Michaelis constant (Km) amounted to 34.5 µM and the “increase in the affinity of the mutant enzyme” value amounted to 60.58%. Also, in experiment [6], the Kcat is 2.34 and 2.34 min^−1; the Michaelis-Menten constant (Km) was determined as 86.7 µM; the “increase in the Km” value was 50%; the “reduction in the Kcat” value was determined as 19%. In experiment [7], the “binding to ATP (in words)” value is listed as “poor binding; also recorded: very poor binding”.
`CC(C)(COP(=O)(O)OP(=O)(O)OC[C@H]1O[C@@H](n2cnc3c(N)ncnc32)[C@H](O)[C@@H]1O)[C@@H](O)C(=O)NCCC(=O)NCCS` [DCoA, dephosphocoenzyme A]: the Kcat in experiment [1] is 0.0569 s⁻¹; in experiment [2], 0.00171 s⁻¹; in experiment [3], “nr”; in experiment [4], 0.02572 s⁻¹; in experiment [5], 0.0327 s⁻¹; in experiment [9], 0.0257 s⁻¹ and 0.0293 s⁻¹. Also, the figures for the Kcat in experiment [6] and in experiment [13] were 1.532 min⁻¹ and 0.00755 s⁻¹, respectively. In addition, the Km in [1] was found to be 80.9 µM; in [2], 501 µM; in experiment [4], 37.2 µM; in [5], 21.7 µM; in [6], 75.8 µM; in [13] it was 181 µM. In addition, the ΔH was −3719((±201.5) calM^−1 in experiment [8]; −4355(±138.7) calM^−1 in [10]; -3576 calM^−1 and −3576(±115.7) calM^−1 in experiment [11]; −7723 calM^−1 in experiment [7] (pH 7.8); −1559(±72.9) calM^−1 in [12]. The ΔS was 6.32(±0.34) calM^−1K^−1 in experiment [8]; 4.94(±0.42) calM^−1K^−1 in experiment [10]; 5.73(±0.37) calM^−1K^−1 in experiment [11]; −6.5((±0.49) calM^−1K^−1 in experiment [7] (pH 7.8); −35.1(±0.98) calM^−1K^−1 in experiment [12]. Further, in [2], the “increase in the Km” value worked out at 15 fold. Besides, in experiment [5], the “increase in the affinity of the mutant enzyme” value was determined as 62.17%. Also, the Ka in experiment [10] is listed as 2.12 (±2.61E3) M^−1*10^−4; in [11], 1.32(±1.45E3) M^−1*10^−4; in experiment [7] (pH 7.8), 2.17(±1.23E3) M^−1*10^−4. In experiment [7], the “binding of the leading substrate (in words)” value is listed as “reasonably well”. The “Kcat, % of the WT” value in experiment [13] is recorded as ~15%.
Turning to `Nc1ncnc2c1ncn2[C@@H]1O[C@H](CO[P@](=O)(O)O[P@](=O)(O)O[P@@](=O)(O)S)[C@@H](O)[C@H]1O` [NHATP, ATP-γS], in [11], the ΔH was −1826 calM^−1 and −1826(±195.7) calM^−1; the ΔS was 13.8 calM^−1K^−1 and 13.8(±0.59) calM^−1K^−1. Besides, in experiment [7] (pH 7.8), the “N (binding)” value is on record as “No binding”.
